The values below come from patent publication US12630600B2 (MEDIMMUNE LIMITED, priority 2022, dated 2026).

Structures are written as SMILES. Starred links: 1 amine or outer side, 2 acyl side, 3 side chain; linkers in the order of their positions; H or OH if unused. Non-standard residues stand in square brackets, D forms with d. Residues, ends and D or L forms follow the SMILES beside them. Groups on a side chain read outwards from the residue. *: point of attachment. C20 diacid = O=C(O)CCCCCCCCCCCCCCCCCCC(=O)*; C18 diacid = O=C(O)CCCCCCCCCCCCCCCCC(=O)*; γGlu = O=C(O)[C@H](CCC(=O)[*:2])N[*:1]; αMeF = C[C@](N)(Cc1ccccc1)C(=O)O; AEEA = NCCOCCOCC(=O)O; Aib = CC(C)(N)C(=O)O

Assay [1] deals with T1, human glucagon receptor (hGCGR) (Homo sapiens, UniProt P47871).
T1 construct: expressed in transfected cells; host or cells: CHO
T1 sequence (P47871 26-477): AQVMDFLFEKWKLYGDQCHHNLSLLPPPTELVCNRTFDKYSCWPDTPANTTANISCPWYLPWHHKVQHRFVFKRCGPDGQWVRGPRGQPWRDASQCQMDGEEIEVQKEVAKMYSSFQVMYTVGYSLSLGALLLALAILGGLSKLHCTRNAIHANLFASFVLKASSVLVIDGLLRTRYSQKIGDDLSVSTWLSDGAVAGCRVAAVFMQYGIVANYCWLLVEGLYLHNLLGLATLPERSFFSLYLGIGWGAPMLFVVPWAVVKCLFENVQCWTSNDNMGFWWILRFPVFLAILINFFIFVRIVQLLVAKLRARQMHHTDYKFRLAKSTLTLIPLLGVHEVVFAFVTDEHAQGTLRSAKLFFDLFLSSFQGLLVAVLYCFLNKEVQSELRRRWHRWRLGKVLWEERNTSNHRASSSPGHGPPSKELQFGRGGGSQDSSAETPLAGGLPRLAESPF
Briefly: cAMP production (HTRF) in CHO cells expressing human glucagon receptor. The note with it: Table 6, modification at position 17, CHO cells expressing hGCGR, geometric mean, read-out: hGluc-R EC50. The format is cell-based. As for the experimental part:
Cells were re-suspended in assay buffer at a batch-dependent optimized concentration (typically hGLP-1R cells at 1×10^5 cells/mL, hGCGR cells at 2×10^5 cells/mL).
Cells were added to the assay plate using a multidrop dispenser and incubated at room temperature for 30 minutes before measuring the cAMP level using a cAMP dynamic 2 homogeneous time resolved Fluorescence (HTRF) kit (Cisbio Bioassays #62AM4PEJ) following the two-step protocol as per manufacturer's recommendations. In brief, anti-cAMP cryptate (donor fluorophore) and cAMP-d2 (acceptor fluorophore) were made up separately by diluting each 1 in 20 in conjugate and lysis buffer provided in the kit. Anti-cAMP cryptate was added to all wells of the assay plate, followed by cAMP-d2 added to all wells except non-specific binding (NSB) wells (to which conjugate and lysis buffer was added).
Data was transformed to % Delta F as described in the manufacturer's guidelines and analyzed by 4-parameter logistic fit to determine EC50 values.

Assay [2] concerns the target T2, human GLP-1 receptor (hGLP-1R) (Homo sapiens, UniProt P43220).
T2 construct: expressed in transfected cells; host or cells: CHO
Briefly: cAMP production (HTRF) in CHO cells expressing human GLP-1 receptor. Format: cell-based. The note with it: % GLP-1R activity relative to GLP-1 / % GlucR activity relative to glucagon.

T2 sequence (P43220 24-463): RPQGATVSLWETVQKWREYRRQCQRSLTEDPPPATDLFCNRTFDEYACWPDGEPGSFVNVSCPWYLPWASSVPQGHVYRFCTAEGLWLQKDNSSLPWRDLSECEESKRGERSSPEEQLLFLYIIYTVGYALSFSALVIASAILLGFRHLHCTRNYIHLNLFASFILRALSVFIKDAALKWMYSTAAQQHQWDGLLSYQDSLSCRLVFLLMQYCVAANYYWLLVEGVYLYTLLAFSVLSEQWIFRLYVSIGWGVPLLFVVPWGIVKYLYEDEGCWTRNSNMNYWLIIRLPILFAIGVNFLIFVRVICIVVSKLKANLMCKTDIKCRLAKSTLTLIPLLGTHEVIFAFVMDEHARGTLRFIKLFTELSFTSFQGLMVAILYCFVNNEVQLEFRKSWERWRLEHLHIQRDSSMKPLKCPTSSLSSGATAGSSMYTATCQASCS

Consider `CC(C)C[C@H](NC(=O)[C@H](Cc1c[nH]c2ccccc12)NC(=O)[C@H](CCCNC(=N)N)NC(=O)[C@@H](NC(=O)[C@H](Cc1ccccc1)NC(=O)[C@H](CC(=O)O)NC(=O)[C@H](CCCNC(=N)N)NC(=O)[C@H](C)NC(=O)[C@H](CCCNC(=N)N)NC(=O)[C@H](CCCCNC(=O)CC[C@H](NC(=O)CC[C@H](NC(=O)COCCOCCNC(=O)COCCOCCNC(=O)CC[C@H](NC(=O)CC[C@H](NC(=O)CCCCCCCCCCCCCCCCC(=O)O)C(=O)O)C(=O)O)C(=O)O)C(=O)O)NC(=O)[C@H](CO)NC(=O)[C@H](CC(=O)O)NC(=O)[C@H](CC(C)C)NC(=O)[C@](C)(Cc1ccccc1)NC(=O)[C@H](CCCCN)NC(=O)[C@H](CO)NC(=O)[C@@H](NC(=O)[C@H](CC(=O)O)NC(=O)[C@H](CO)NC(=O)[C@@H](NC(=O)[C@H](Cc1ccccc1)NC(=O)[C@@H](NC(=O)CNC(=O)[C@H](CCC(N)=O)NC(=O)C(C)(C)NC(=O)[C@@H](N)Cc1c[nH]cn1)[C@@H](C)O)[C@@H](C)O)C(C)C)C(C)C)C(=O)N[C@@H](CC(C)C)C(=O)N[C@@H](CCC(=O)O)C(=O)NC(C)(C)C(=O)NCC(=O)O` [Peptide 136] (H-H[Aib]QGTFTSDVSK[αMeF]LDSK([γGlu-γGlu-AEEA-AEEA-γGlu-γGlu-C18 diacid])RARDFVRWLLE[Aib]G-OH; N-terminus assumed), for which the EC50 in assay [1] is 509 pM.
As for `CC[C@H](C)[C@H](NC(=O)C(C)(C)NC(=O)[C@H](CCCCNC(=O)COCCOCCNC(=O)COCCOCCNC(=O)CC[C@H](NC(=O)CCCCCCCCCCCCCCCCC(=O)O)C(=O)O)NC(=O)[C@@H](NC(=O)[C@H](Cc1ccccc1)NC(=O)[C@H](CC(=O)O)NC(=O)[C@H](CCC(N)=O)NC(=O)[C@H](C)NC(=O)[C@H](C)NC(=O)[C@H](CCCNC(=N)N)NC(=O)[C@H](CO)NC(=O)[C@H](CC(=O)O)NC(=O)[C@H](CC(C)C)NC(=O)[C@](C)(Cc1ccccc1)NC(=O)[C@H](CCCCN)NC(=O)[C@H](CO)NC(=O)[C@@H](NC(=O)[C@H](CC(=O)O)NC(=O)[C@H](CO)NC(=O)[C@@H](NC(=O)[C@](C)(Cc1ccccc1)NC(=O)[C@H](CO)NC(=O)CNC(=O)[C@H](Cc1c[nH]cn1)NC(=O)C(C)(C)NC(=O)[C@@H](N)Cc1c[nH]cn1)[C@@H](C)O)C(C)C)C(C)C)C(=O)N[C@@H](C)C(=O)N[C@@H](CC(N)=O)C(=O)N[C@H](C(N)=O)[C@@H](C)O` [Peptide 366] (H-H[Aib]HGS[αMeF]TSDVSK[αMeF]LDSRAAQDFVK([AEEA-AEEA-γGlu-C18 diacid])[Aib]IANT-NH2; N-terminus assumed), the “% Relative Potency Ratio” value in assay [2] (Table 8) was determined as 1.7.
As to `CC[C@H](C)[C@H](NC(=O)[C@H](Cc1c[nH]c2ccccc12)NC(=O)[C@H](CCCCNC(=O)COCCOCCNC(=O)COCCOCCNC(=O)CC[C@H](NC(=O)CCCCCCCCCCCCCCCCC(=O)O)C(=O)O)NC(=O)[C@@H](NC(=O)[C@H](Cc1ccccc1)NC(=O)[C@H](CC(=O)O)NC(=O)[C@H](CCC(N)=O)NC(=O)[C@H](C)NC(=O)[C@H](C)NC(=O)[C@H](CCC(N)=O)NC(=O)[C@H](CO)NC(=O)[C@H](CC(=O)O)NC(=O)[C@H](CC(C)C)NC(=O)[C@](C)(Cc1ccccc1)NC(=O)[C@H](CCCCN)NC(=O)[C@H](CO)NC(=O)[C@@H](NC(=O)[C@H](CC(=O)O)NC(=O)[C@H](CO)NC(=O)[C@@H](NC(=O)[C@](C)(Cc1ccccc1)NC(=O)[C@H](CO)NC(=O)CNC(=O)[C@H](CCC(N)=O)NC(=O)C(C)(C)NC(=O)[C@@H](N)Cc1c[nH]cn1)[C@@H](C)O)C(C)C)C(C)C)C(=O)N[C@@H](C)C(=O)N[C@@H](CC(N)=O)C(=O)N[C@H](C(N)=O)[C@@H](C)O` [Peptide 348] (H-H[Aib]QGS[αMeF]TSDVSK[αMeF]LDSQAAQDFVK([AEEA-AEEA-γGlu-C18 diacid])WIANT-NH2; N-terminus assumed), the “% Relative Potency Ratio” value in assay [2] (Table 8) is 116.0.
On the same count and under the same terms, then `CC[C@H](C)[C@H](NC(=O)[C@H](Cc1c[nH]c2ccccc12)NC(=O)[C@H](CCCCNC(=O)COCCOCCNC(=O)COCCOCCNC(=O)CC[C@H](NC(=O)CCCCCCCCCCCCCCCCC(=O)O)C(=O)O)NC(=O)[C@@H](NC(=O)[C@](C)(Cc1ccccc1)NC(=O)[C@H](CC(=O)O)NC(=O)[C@H](CCC(N)=O)NC(=O)[C@H](C)NC(=O)[C@H](C)NC(=O)[C@H](CCC(N)=O)NC(=O)[C@H](CO)NC(=O)[C@H](CC(=O)O)NC(=O)[C@H](CC(C)C)NC(=O)[C@](C)(Cc1ccccc1)NC(=O)[C@H](CCCCN)NC(=O)[C@H](CO)NC(=O)[C@@H](NC(=O)[C@H](CC(=O)O)NC(=O)[C@H](CO)NC(=O)[C@@H](NC(=O)[C@](C)(Cc1ccccc1)NC(=O)[C@H](CO)NC(=O)CNC(=O)[C@H](Cc1c[nH]cn1)NC(=O)C(C)(C)NC(=O)[C@@H](N)Cc1c[nH]cn1)[C@@H](C)O)C(C)C)C(C)C)C(=O)N[C@@H](C)C(=O)N[C@@H](CC(N)=O)C(=O)N[C@H](C(N)=O)[C@@H](C)O` [Peptide 370] (H-H[Aib]HGS[αMeF]TSDVSK[αMeF]LDSQAAQD[αMeF]VK([AEEA-AEEA-γGlu-C18 diacid])WIANT-NH2; N-terminus assumed), with 1.1; and `CC[C@H](C)[C@H](NC(=O)[C@H](Cc1c[nH]c2ccccc12)NC(=O)[C@H](CCCCNC(=O)COCCOCCNC(=O)COCCOCCNC(=O)CC[C@H](NC(=O)CCCCCCCCCCCCCCCCC(=O)O)C(=O)O)NC(=O)[C@@H](NC(=O)[C@H](Cc1ccccc1)NC(=O)[C@H](CC(=O)O)NC(=O)[C@H](CCC(N)=O)NC(=O)[C@H](C)NC(=O)C(C)(C)NC(=O)[C@H](CCCNC(=N)N)NC(=O)[C@H](CO)NC(=O)[C@H](CC(=O)O)NC(=O)[C@H](CC(C)C)NC(=O)[C@](C)(Cc1ccccc1)NC(=O)[C@H](CCCCN)NC(=O)[C@H](CO)NC(=O)[C@@H](NC(=O)[C@H](CC(=O)O)NC(=O)[C@H](CO)NC(=O)[C@@H](NC(=O)[C@](C)(Cc1ccccc1)NC(=O)[C@H](CO)NC(=O)CNC(=O)[C@H](Cc1c[nH]cn1)NC(=O)C(C)(C)NC(=O)[C@@H](N)Cc1c[nH]cn1)[C@@H](C)O)C(C)C)C(C)C)C(=O)N[C@@H](C)C(=O)N[C@@H](CC(N)=O)C(=O)N[C@H](C(N)=O)[C@@H](C)O` [Peptide 365, H(Aib)HGS(αMePhe)TSDVSK(αMePhe)LDSR(Aib)AQDFVK(O2Oc-O2Oc-γE-C18diacid)24WIANT-amide] (H-H[Aib]HGS[αMeF]TSDVSK[αMeF]LDSR[Aib]AQDFVK([AEEA-AEEA-γGlu-C18 diacid])WIANT-NH2; N-terminus assumed), with 0.3.
On to `CC[C@H](C)[C@H](NC(=O)[C@H](Cc1c[nH]c2ccccc12)NC(=O)[C@H](CCCCNC(=O)COCCOCCNC(=O)COCCOCCNC(=O)CC[C@H](NC(=O)CC[C@H](NC(=O)CCCCCCCCCCCCCCCCCCC(=O)O)C(=O)O)C(=O)O)NC(=O)[C@@H](NC(=O)[C@H](Cc1ccccc1)NC(=O)[C@H](CC(=O)O)NC(=O)[C@H](CCC(N)=O)NC(=O)[C@H](C)NC(=O)[C@H](C)NC(=O)[C@H](CCCNC(=N)N)NC(=O)[C@H](CO)NC(=O)[C@H](CC(=O)O)NC(=O)[C@H](CC(C)C)NC(=O)[C@](C)(Cc1ccccc1)NC(=O)[C@H](CCCCN)NC(=O)[C@H](CO)NC(=O)[C@@H](NC(=O)[C@H](CC(=O)O)NC(=O)[C@H](CO)NC(=O)[C@@H](NC(=O)[C@](C)(Cc1ccccc1)NC(=O)[C@H](CO)NC(=O)CNC(=O)[C@H](Cc1c[nH]cn1)NC(=O)C(C)(C)NC(=O)[C@@H](N)Cc1c[nH]cn1)[C@@H](C)O)C(C)C)C(C)C)C(=O)N[C@@H](C)C(=O)N[C@@H](CC(N)=O)C(=O)N[C@H](C(N)=O)[C@@H](C)O` [Peptide 377] (H-H[Aib]HGS[αMeF]TSDVSK[αMeF]LDSRAAQDFVK([AEEA-AEEA-γGlu-γGlu-C20 diacid])WIANT-NH2), for which the “% Relative Potency Ratio” value in assay [2] (Table 8) amounted to 2.5.
In the case of `CC(C)C[C@H](NC(=O)[C@H](CCC(=O)O)NC(=O)[C@H](CC(C)C)NC(=O)[C@](C)(Cc1ccccc1)NC(=O)[C@H](CCCCN)NC(=O)[C@H](CO)NC(=O)[C@@H](NC(=O)[C@H](CC(=O)O)NC(=O)[C@H](CO)NC(=O)[C@@H](NC(=O)[C@H](Cc1ccccc1)NC(=O)[C@@H](NC(=O)CNC(=O)[C@H](CCC(N)=O)NC(=O)C(C)(C)NC(=O)[C@@H](N)Cc1c[nH]cn1)[C@@H](C)O)[C@@H](C)O)C(C)C)C(=O)N[C@@H](CCCCNC(=O)COCCOCCNC(=O)COCCOCCNC(=O)CC[C@H](NC(=O)CCCCCCCCCCCCCCCCC(=O)O)C(=O)O)C(=O)N[C@@H](CCCNC(=N)N)C(=O)N[C@@H](C)C(=O)N[C@@H](CCC(N)=O)C(=O)N[C@@H](CC(=O)O)C(=O)N[C@@H](Cc1ccccc1)C(=O)N[C@H](C(=O)N[C@@H](CCCNC(=N)N)C(=O)N[C@@H](Cc1c[nH]c2ccccc12)C(=O)N[C@@H](CC(C)C)C(=O)N[C@@H](CC(C)C)C(=O)NC(C)(C)C(=O)N[C@H](C(=O)N[C@@H](CCC(=O)O)C(=O)O)[C@@H](C)O)C(C)C` [Peptide 169] (H-H[Aib]QGTFTSDVSK[αMeF]LELK([AEEA-AEEA-γGlu-C18 diacid])RAQDFVRWLL[Aib]TE-OH; N-terminus assumed), the “% Relative Potency Ratio” value in assay [2] (Table 6) turned out to be 13.2.
